Columns and labels:
[1] = tested on: Mycosphaerella graminicola; Anamorph: Septoria tritici; Bayer Code SEPTTR; test: Fungicidal activity against leaf blotch of wheat, one-day protectant (1DP); type: in vivo; details: wheat plants (variety Yuma), % disease control rating
Protocol: (§1) Evaluation of Fungicidal Activity: Leaf Blotch of Wheat (Mycosphaerella graminicola; Anamorph: Septoria tritici; Bayer Code […]) Wheat plants (variety Yuma) were grown from seed in a greenhouse in 50% mineral soil/50% soil-less Metro mix until the first leaf was fully emerged, with 7-10 seedlings per pot. These plants were inoculated with an aqueous spore suspension of Septoria tritici either prior to or after fungicide treatments. After inoculation the plants were kept in 100% relative humidity (one day in a dark dew chamber followed by two to three days in a lighted dew chamber) to permit spores to germinate and infect the leaf. The plants were then transferred to a greenhouse for disease to develop. The following table presents the activity of typical compounds of the present disclosure when evaluated in these experiments. The effectiveness of the test compounds in controlling disease was determined by assessing the severity of disease on treated plants, then converting the severity to percent control based on the level of disease on untreated, inoculated plants.

[2] = tested on: Mycosphaerella graminicola; Anamorph: Septoria tritici; Bayer Code SEPTTR; test: Fungicidal activity against leaf blotch of wheat, three-day curative (3DC); type: in vivo; details: wheat plants (variety Yuma), % disease control rating
Protocol: as §1

SMILES | SEPTTR 100 PPM 1DP [1] | SEPTTR 100 PPM 3DC [2] | melting point [°C]
Cc1ccc(C(=O)n2cc(F)c(=N)n(C)c2=O)cc1 [Compound 2] | A (76-100) | A (76-100) | 103 to 107
Cn1c(=N)c(F)cn(C(=O)c2cc(Cl)cc(Cl)c2)c1=O [Compound 1, 1-(3,5-dichlorobenzoyl)-5-fluoro-4-imino-3-methyl-3,4-dihydropyrimidin-2(1H)-one] | A (76-100) | A (76-100) | 141.6 to 142.6
